Laboratory results reported in patent US9580444B2, “Polycyclic pyrazolinone derivative and herbicide comprising same as effective component thereof” (priority 2013, dated 2017).

Assays:
Type in all cases: in vivo
Settings in all cases: 500 g a.i/ha, foliage treatment after emergence, about 14 days after treatment, score 0-5
corn = assay: Test Example-4: phytotoxicity by a foliage treatment after weeds are generated under upland field conditions
Text: (§1) Using the formulation prepared according to the methods described above, the herbicidal effect of the bicyclic pyrazolinone derivative of the invention according to the methods shown in Test Examples below was examined. The herbicidal effect with respect to the test weeds or the phytotoxicity with respect to the test crops was examined according to the following criteria, and evaluated in six stage scores of 0 to 5. A vat having an area of 65 cm^2 and a depth of 2 cm was filled with upland soil, then, seeds of Amaranthus viridis (green amaranthus), Abutilon theophrasti (velvetleaf), Chenopodium album (common lambsquarters), […]. While watering was suitably performed on there, the seeds were grown for 14 days. A wettable powder or an emulsifiable concentrate of the compound of the present invention prepared according to Formulation Example was diluted, and a spray treatment was uniformly performed on the foliage portion of the plant so as to be a predetermined dosage in the amount of water of 4000 L per hectare. The herbicidal effect with respect to the test weeds and the phytotoxicity with respect to corn about 14 days after the treatment were evaluated according to the evaluation criteria in six stages of 0 to 5 described above.

[1] = system: Abutilon theophrasti (velvetleaf); assay: Test Example-4: herbicidal effect by a foliage treatment after weeds are generated under upland field conditions
Text: as §1

[2] = system: Amaranthus viridis (green amaranthus); assay: as above
Text: as §1

[3] = system: Chenopodium album (common lambsquarters); assay: as above
Text: as §1

SMILES	Phytotoxicity Corn (corn)	Herbicidal effect Abutilon theophrast [1]	Herbicidal effect Amaranthus viridis [2]	Herbicidal effect Chenopodium album [3]
C=C(COc1cc(-c2c(Cl)n3n(c2=O)CCCC3)c(F)cc1Cl)c1cccc(Cl)c1 [Example 1-228]	1 (Herbicidal effect/phytotoxicity was 10% to 30%)	5 (Herbicidal effect/phytotoxicity was 90% or greater)	5 (Herbicidal effect/phytotoxicity was 90% or greater)	5 (Herbicidal effect/phytotoxicity was 90% or greater)
C=C(C)COc1ccccc1Oc1cc(-c2c(Cl)n3n(c2=O)CCCC3)c(F)cc1Cl [Example 3-22]	0 (Herbicidal effect/phytotoxicity was 0% to 10%)	5 (Herbicidal effect/phytotoxicity was 90% or greater)	5 (Herbicidal effect/phytotoxicity was 90% or greater)	5 (Herbicidal effect/phytotoxicity was 90% or greater)
O=c1c(-c2cc(OC3CCCC3)c(Cl)cc2F)c(Cl)n2n1CCCCC2 [Example 1-182]	1 (Herbicidal effect/phytotoxicity was 10% to 30%)	5 (Herbicidal effect/phytotoxicity was 90% or greater)	5 (Herbicidal effect/phytotoxicity was 90% or greater)	5 (Herbicidal effect/phytotoxicity was 90% or greater)
CC(C)Oc1cc(-c2c(Cl)n3n(c2=O)CCCC3)ccc1Cl [Example 1-49]	0 (Herbicidal effect/phytotoxicity was 0% to 10%)	5 (Herbicidal effect/phytotoxicity was 90% or greater)	5 (Herbicidal effect/phytotoxicity was 90% or greater)	5 (Herbicidal effect/phytotoxicity was 90% or greater)
CC1(COc2cc(-c3c(Cl)n4n(c3=O)CCCC4)c(F)cc2Cl)CC(c2ccccc2Cl)=NO1 (centres unmarked) [Example 4-5]	1 (Herbicidal effect/phytotoxicity was 10% to 30%)	5 (Herbicidal effect/phytotoxicity was 90% or greater)	5 (Herbicidal effect/phytotoxicity was 90% or greater)	5 (Herbicidal effect/phytotoxicity was 90% or greater)
C#CCOc1cc(C)ccc1Oc1cc(-c2c(Cl)n3n(c2=O)CCCC3)c(F)cc1Cl [Example 3-43]	0 (Herbicidal effect/phytotoxicity was 0% to 10%)	5 (Herbicidal effect/phytotoxicity was 90% or greater)	5 (Herbicidal effect/phytotoxicity was 90% or greater)	5 (Herbicidal effect/phytotoxicity was 90% or greater)
C=C(C)COC(=O)C=C(COc1cc(-c2c(Cl)n3n(c2=O)CCCC3)c(F)cc1Cl)OCC [Example 2-30]	0 (Herbicidal effect/phytotoxicity was 0% to 10%)	5 (Herbicidal effect/phytotoxicity was 90% or greater)	5 (Herbicidal effect/phytotoxicity was 90% or greater)	5 (Herbicidal effect/phytotoxicity was 90% or greater)
O=c1c(-c2cc([N+](=O)[O-])c(Cl)cc2F)c(C(F)(F)F)n2n1CCCC2 [Example 1-336]	0 (Herbicidal effect/phytotoxicity was 0% to 10%)	5 (Herbicidal effect/phytotoxicity was 90% or greater)	5 (Herbicidal effect/phytotoxicity was 90% or greater)	5 (Herbicidal effect/phytotoxicity was 90% or greater)
